From the OligoGym collection come the findings set out here.

This data set addresses KRAS. The conditions noted are these: ASO.

“And” between values parts separate entries of the source, which are not always exact repeats. Identical values can stand only once. After the bases stand the sugars from the 5' end (letter, count) and the backbone: PS all phosphorothioate, else s phosphorothioate and o phosphodiester by linkage. Methylation of C is not given here. e = 2'-O-(2-methoxyethyl) (MOE); k = constrained ethyl (cEt); d = 2'-deoxy (DNA)

On to “CATTTATGTGACTAGA (sugars kdddddddddkekeke, PS)”, for which the target mRNA inhibition (A431, 2 µM) amounted to 24%. Consider GCTATTAGGAGTCTTT (sugars k3 d10 k3, PS), for which the target mRNA inhibition by setting is: (A431, 0.125 µM) 68% and 67%; (A431, 0.185 µM) 33% and 16% and 26%; (A431, 0.556 µM) 50% and 47% and 44%; (A431, 1.667 µM) 77% and 67% and 58%; (NCI-H460, 0.037 µM) 69.9%.

Regarding CCAGTGTTAAGAGAAC (sugars k3 d10 k3, PS), the target mRNA inhibition (A431, 2 µM) turned out to be 33%.

“CAGTGTGACTCAGTTA (sugars kkdddddddddkekek, PS)”: the target mRNA inhibition (A431, 2 µM) turned out to be 56%.

For the sequence CTTACAAATCTGAATT (sugars k3 d10 k3, PS), the target mRNA inhibition (A431, 2 µM) amounted to 7%. Turning to CAACTGCATGCACCAA (sugars k3 d10 k3, PS), the target mRNA inhibition (A431, 2 µM) turned out to be 31%. “ACCAGTGTTAAGAGAA (sugars kdddddddddkekeke, PS)” registered a target mRNA inhibition (A431, 2 µM) of 50%. “TAGTGATTAGGTCAAA (sugars kkddddddddddkeke, PS)” displayed a target mRNA inhibition (A431, 2 µM) of 34%. For the sequence CTAAAACAAATGCTAA (sugars k3 d10 k3, PS), the target mRNA inhibition (A431, 2 µM) came to 15%. Sequence “CCATTCAAAGTTCACA (sugars kkddddddddddkeke, PS)” yielded a target mRNA inhibition (A431, 0.185 µM) of 19%; a target mRNA inhibition (A431, 0.556 µM) of 32%; a target mRNA inhibition (A431, 1.667 µM) of 50%; a target mRNA inhibition (A431, 2 µM) of 63%; a target mRNA inhibition (A431, 5 µM) of 67%; a target mRNA inhibition (NCI-H460, 0.037 µM) of 54.7%.

Take “CAGTGTGACTCAGTTA (sugars kkkddddddddkdkdk, PS)”: the target mRNA inhibition (A431, 0.185 µM) is 10%; the target mRNA inhibition (A431, 0.556 µM) came out at 24%; the target mRNA inhibition (A431, 1.667 µM) amounted to 45%; the target mRNA inhibition (A431, 2 µM) is 60% and 50%; the target mRNA inhibition (A431, 5 µM) amounted to 66%. Consider AAAGTGTTTATGCAAT (sugars k3 d10 k3, PS), for which, where the note is “A431, 2 µM”, the target mRNA inhibition turned out to be 29%. Sequence TTATGGTTAGGGGAAT (sugars k3 d10 k3, PS) registered a target mRNA inhibition (A431, 2 µM) of 21%. Consider TGTAGTTTCACATAGC (sugars k3 d10 k3, PS), for which the target mRNA inhibition (A431, 0.185 µM) was 28% and 3%; the target mRNA inhibition (A431, 0.556 µM) was 45% and 34%; the target mRNA inhibition (A431, 2 µM) came out at 59%; the target mRNA inhibition (A431, 5 µM) is 75% and 69%. GACTTGAAAAGTGTTT (sugars k3 d10 k3, PS) returned a target mRNA inhibition (A431, 2 µM) of 14%. On the same count and under the same terms, the figure for “TCCATTTATGTGACTA (sugars kkdddddddddkekek, PS)” is 32%; for CTGTGAAACTCTCTAT (sugars k3 d10 k3, PS) it is 29%. As for ATGTAGGGCATTTCTG (sugars k3 d10 k3, PS), where the note is “A431, 2 µM”, the target mRNA inhibition amounted to 9%. AATAATCCCCATTTCA (sugars k3 d10 k3, PS) gave a target mRNA inhibition (A431, 2 µM) of 16%. Still for that read-out and setting: with GGAGTCTTTATAGTAA (sugars k3 d10 k3, PS) the figure was 38%. In the case of AAAAGTGTTTATGCAA (sugars k3 d10 k3, PS), the target mRNA inhibition (A431, 2 µM) came to 32%. Still for that read-out and setting: with “CAGTGTGACTCAGTTA (sugars kdddddddddkekeke, PS)” the figure was 54%; with “AGATTGTGCTGAGCTT (sugars kkddddddddkekekk, PS)”, 0%; with “TGTTTATGCAATGTTA (sugars kkkddddddddkekek, PS)”, 52%. Turning to “AGGAGTCTTTATAGTA (sugars k3 d9 k3 e1, PS)”, the target mRNA inhibition (A431, 2 µM) came to 6%. For the setting “A431, 2 µM”, “CTTGATTTGTCAGCAG (sugars k3 d9 k3 e1, PS)” registered a target mRNA inhibition of 46%. Regarding GCATGAAGATTTCTGG (sugars k3 d10 k3, PS), the target mRNA inhibition (A431, 2 µM) was 62% and 66% and 60%. On to “TTGATTTGTCAGCAGG (sugars kkddddddddddkeke, PS)”, for which the target mRNA inhibition (A431, 0.185 µM) worked out at 25%; the target mRNA inhibition (A431, 0.556 µM) was determined as 48%; the target mRNA inhibition (A431, 1.667 µM) was 62%; the target mRNA inhibition (A431, 2 µM) is 66% and 45%; the target mRNA inhibition (A431, 5 µM) came to 83%. With ACAAATGCTAATAATT (sugars k3 d10 k3, PS), for the setting “A431, 2 µM”, the target mRNA inhibition was determined as 1%. Where the note is “A431, 5 µM”, AGTCTATTTCAGGCGG (sugars k3 d10 k3, PS) showed a target mRNA inhibition of 50%. Regarding TAATAGTTTCCATTGC (sugars k3 d10 k3, PS), the target mRNA inhibition (A431, 2 µM) was found to be 53%.
